Results: patent US20130184302A1, “METHODS FOR TREATING IRRITABLE BOWEL SYNDROME (IBS) AND INFECTIONS” (priority 2011, published 2013)

Columns and labels:
[1] = tested on: patients with non-constipation IBS (non-C IBS); experiment: Adequate relief of IBS symptoms and IBS symptom of bloating (weekly SGA, daily measures), rifaximin 550 mg TID 14 days; assay type: in vivo, human
Text: A measure of efficacy was based on subjects' answers to the Weekly Subject Global Assessment (SGA) questions over the 4 week study duration in relation to their IBS symptoms. […] The SGA question was asked weekly as follows: “In the past 7 days, have you had adequate relief of your IBS symptom of bloating?” (Yes/No).
The primary efficacy endpoint of the study was the proportion of subjects who achieved adequate relief of IBS symptoms for at least 2 weeks during the first 4 weeks of the 10-week follow-up phase.
Two measures of efficacy were assessed.
Subjects were questioned on the relief of overall IBS symptoms and bloating. […] The analyses defined success as a “yes” response to questions regarding adequate relief.
All subpopulations in the study responded to therapy. Baseline severity was determined during screening for Abdominal Pain/Discomfort and Bloating, and the number, type (normal, hard, loose) and urgency of bowel movements. Duration of effect was assessed in a ten week follow-up period.

[2] = tested on: subjects with IBS; experiment: Sustained response and recurrence of symptoms after Primary Evaluation Period, rolling 4 weeks; assay type: in vivo, human
Method: An evaluation of the enrolled subjects was carried out after the Primary Evaluation Period in the study described in Examples 5-7. […] Subjects with no recurrence are defined as having a stool consistency score of less than 4, abdominal pain reduced by at least 30 percent or both.

[3] = Age Group: <65 (N = 281), 550 mg TID
[4] = Gender: Female (N = 226), 550 mg TID
[5] = Gender: Male (N = 85), 550 mg TID
[6] = IBS Subtype: Alternating-predominant, 550 mg TID
[7] = IBS Subtype: Diarrhoea-predominant, 550 mg TID
[8] = Population: ITT (N = 315), 550 mg TID
[9] = Population: PP (N = 311), 550 mg TID
[10] = Population: PP (N = 311), weekly SGA, 550 mg TID
[11] = Race: Non-White (N = 31), 550 mg TID
[12] = Race: White (N = 280), 550 mg TID
[13] = oral rifaximin 550 mg TID 14 days vs subjects not taking rifaximin
[14] = weekly SGA, at least 2 of Weeks 3 through 6, 550 mg TID (N = 315)
[15] = weekly SGA, 550 mg TID (N = 315)
[16] = Rolling 2-5 Weeks, First and Second Studies, Rifaximin (N = 624)
[17] = Rolling 3-6 Weeks, First and Second Studies
[18] = Rolling 4-7 Weeks, First and Second Studies
[19] = Rolling 4-7 Weeks, Rifaximin (N = 624)

`CO[C@H]1/C=C/O[C@@]2(C)Oc3c(C)c(O)c4c(O)c(c5c(nc6cc(C)ccn65)c4c3C2=O)NC(=O)/C(C)=C\C=C\[C@H](C)[C@H](O)[C@@H](C)[C@@H](O)[C@@H](C)[C@H](OC(C)=O)[C@@H]1C` [Rifaximin, (2S,16Z,18E,20S,21S,22R, 23R,24R,25S,26S,27S,28E)-5,6,21,23,25 Pentahydroxy-27-methoxy-2,4,11,16,20,22,24,26-octamethyl-2,7-(epoxypentadeca-(1,11,13)trienimino) benzofuro (4,5-e) pyrido(1,2,-a) benzimidazole-1,15(2H)-dione,25-acetate] was tested, and the “Adequate Relief of IBS symptom of Bloating: Failure” value [1, 3] was 171 (60.9%), the “Adequate Relief of IBS symptom of Bloating: Success” value [1, 3] was 110 (39.1%) and the “Adequate Relief of IBS symptoms: Failure” value [1, 3] was 171 (60.9%). The “Adequate Relief of IBS symptoms: Success” value [1, 3] was 110 (39.1%), the “Adequate Relief of IBS symptom of Bloating: Failure” value ([1]; Age Group: > = 65, 550 mg TID) was 16 (53.3%) and the “Adequate Relief of IBS symptom of Bloating: Success” value ([1]; Age Group: > = 65, 550 mg TID) was 14 (46.7%). The “Adequate Relief of IBS symptoms: Failure” value ([1]; Age Group: > = 65, 550 mg TID) was 16 (53.3%), the “Adequate Relief of IBS symptoms: Success” value ([1]; Age Group: > = 65, 550 mg TID) was 14 (46.7%) and the “Adequate Relief of IBS symptom of Bloating: Failure” value [1, 4] was 128 (56.6%). The “Adequate Relief of IBS symptom of Bloating: Success” value [1, 4] was 98 (43.4%), the “Adequate Relief of IBS symptoms: Failure” value [1, 4] was 130 (57.5%) and the “Adequate Relief of IBS symptoms: Success” value [1, 4] was 96 (42.5%). The “Adequate Relief of IBS symptom of Bloating: Failure” value [1, 5] was 59 (69.4%), the “Adequate Relief of IBS symptom of Bloating: Success” value [1, 5] was 26 (30.6%) and the “Adequate Relief of IBS symptoms: Failure” value [1, 5] was 57 (67.1%). The “Adequate Relief of IBS symptoms: Success” value [1, 5] was 28 (32.9%), the “Adequate Relief of IBS symptom of Bloating: Failure” value [1, 6] was 19 (55.9%) and the “Adequate Relief of IBS symptom of Bloating: Success” value [1, 6] was 15 (44.1%). The “Adequate Relief of IBS symptoms: Failure” value [1, 6] was 21 (61.8%), the “Adequate Relief of IBS symptoms: Success” value [1, 6] was 13 (38.2%) and the “Adequate Relief of IBS symptom of Bloating: Failure” value [1, 7] was 168 (60.6%). The “Adequate Relief of IBS symptom of Bloating: Success” value [1, 7] was 109 (39.4%), the “Adequate Relief of IBS symptoms: Failure” value [1, 7] was 166 (59.9%) and the “Adequate Relief of IBS symptoms: Success” value [1, 7] was 111 (40.1%). The “Adequate Relief of IBS symptom of Bloating Based on Daily Measures: Failure” value [1, 8] was 182 (57.8%), the “Adequate Relief of IBS symptom of Bloating Based on Daily Measures: Success” value [1, 8] was 133 (42.2%) and the “Adequate Relief of IBS symptoms Based on Daily Measures: Failure” value [1, 8] was 200 (63.5%). For the same compound, the “Adequate Relief of IBS symptoms Based on Daily Measures: Success” value [1, 8] was 115 (36.5%), the “Adequate Relief of IBS symptom of Bloating Based on Daily Measures: Failure” value [1, 9] was 180 (57.9%) and the “Adequate Relief of IBS symptom of Bloating Based on Daily Measures: Success” value [1, 9] was 131 (42.1%). For the same compound, the “Adequate Relief of IBS symptoms Based on Daily Measures: Failure” value [1, 9] was 196 (63.0%), the “Adequate Relief of IBS symptoms Based on Daily Measures: Success” value [1, 9] was 115 (37.0%) and the “Adequate Relief of IBS symptom of Bloating: Failure” value [1, 10] was 187 (60.1%). The “Adequate Relief of IBS symptom of Bloating: Success” value [1, 10] was 124 (39.9%), the “Adequate Relief of IBS symptoms: Failure” value [1, 10] was 187 (60.1%) and the “Adequate Relief of IBS symptoms: Success” value [1, 10] was 124 (39.9%). For the same compound, the “Adequate Relief of IBS symptom of Bloating: Failure” value [1, 11] was 17 (54.8%), the “Adequate Relief of IBS symptom of Bloating: Success” value [1, 11] was 14 (45.2%) and the “Adequate Relief of IBS symptoms: Failure” value [1, 11] was 16 (51.6%). For the same compound, the “Adequate Relief of IBS symptoms: Success” value [1, 11] was 15 (48.4%), the “Adequate Relief of IBS symptom of Bloating: Failure” value [1, 12] was 170 (60.7%) and the “Adequate Relief of IBS symptom of Bloating: Success” value [1, 12] was 110 (39.3%). For the same compound, the “Adequate Relief of IBS symptoms: Failure” value [1, 12] was 171 (61.1%), the “Adequate Relief of IBS symptoms: Success” value [1, 12] was 109 (38.9%) and the “Answers to weekly SGA question on adequate relief of IBS symptom of bloating” value [1, 13] was “responded “Yes” more often”. The “Answers to weekly SGA question on adequate relief of IBS symptoms” value [1, 13] was “responded “Yes” more often”, the “Adequate Relief of IBS symptom of Bloating: Success” value [1, 14] was 125 (39.7%) and the “Adequate Relief of IBS symptoms: Success” value [1, 14] was 125 (39.7%). The “Adequate Relief of IBS symptom of Bloating: Failure” value [1, 15] was 190 (60.3%), the “Adequate Relief of IBS symptoms: Failure” value [1, 15] was 190 (60.3%) and the “Abdominal Pain or Stool Consistency: Sustained Durable Response” value ([2]; First and Second Studies, Rifaximin (N = 624)) was “(28.8%)”. For the same compound, the “Abdominal Pain & Stool Consistency: Sustained Durable Response” value ([2]; Rifaximin (N = 624)) was “(33.2%)”, the “Abdominal Pain: Sustained Durable Response” value ([2]; Rifaximin (N = 624)) was “(35.7%)” and the “Stool Consistency: Sustained Durable Response” value ([2]; Rifaximin (N = 624)) was “(68.9%)”. For the same compound, the “Abdominal Pain or Stool Consistency: No Recurrence” value [2, 16] was “(45.8%)”, the “Abdominal Pain or Stool Consistency: Recurrence” value [2, 16] was “(1.9%)” and the “Abdominal Pain or Stool Consistency: No Recurrence” value [2, 17] was “(43.9%)”. For the same compound, the “Abdominal Pain or Stool Consistency: Recurrence” value [2, 17] was “(3.7%)”, the “Abdominal Pain or Stool Consistency: No Recurrence” value [2, 18] was “(40.2%)” and the “Abdominal Pain or Stool Consistency: Recurrence” value [2, 18] was “(2.7%)”. For the same compound, the “Abdominal Pain & Stool Consistency: No Recurrence” value [2, 19] was “(48.2%)”, the “Abdominal Pain & Stool Consistency: Recurrence” value [2, 19] was “(3.7%)” and the “Abdominal Pain: No Recurrence” value [2, 19] was “(51.9%)”. The “Abdominal Pain: Recurrence” value [2, 19] was “(3.8%)” and the “Stool Consistency: No Recurrence” value [2, 19] was “(78.8%)”.
